The record followed here is US6410482B1, “(Het) arylsulfonylureas having an amino function, their presentation and their use as herbicides and plant growth regulators” (Hoechst Schering AgrEvo GmbH, priority 1996, dated 2002).

The subject of series [1] is Sinapis alba, Stellaria media, Chrysanthemum segetum, and Lolium multiflorum. In words: Pre-emergence effect on weeds (greenhouse pot test, visual scoring). The class given is in vivo. The note with it: applied pre-emergence at 0.3 kg to 0.005 kg of active ingredient per hectare; scored visually after 3 to 4 weeks vs untreated controls. From the text:
Seeds or rhizome pieces of monocotyledonous and dicotyledonous weed plants are placed in sandy loam soil in plastic pots and covered with soil. The compounds of the formula (I) or salts thereof according to the invention which have been formulated in the form of wettable powders or emulsion concentrates are then applied to the surface of the soil cover in the form of aqueous suspensions or emulsions at an application rate of […] of water/ha (converted), in various dosages.
After the treatment, the pots are placed in a greenhouse and kept under good growth conditions for the weeds. After the test plants have emerged after a period of 3 to 4 weeks, the damage to the plants or the negative effect on the emergence is scored visually by comparison with untreated controls. As shown by the test results, the compounds according to the invention have a good herbicidal pre-emergence activity against a broad spectrum of grass weeds and broad-leaved weeds.

The test system is the same in series [2]. In words: Post-emergence effect on weeds (greenhouse pot test, visual scoring). The note with it: applied post-emergence (three-leaf stage) at 0.3 kg to 0.005 kg of active ingredient per hectare; scored visually after about 3 to 4 weeks vs untreated controls. The class given is in vivo. The method, then:
Seeds or rhizome pieces of monocotyledonous and dicotyledonous weeds are placed in sandy loam soil in plastic pots, covered with soil and grown in a greenhouse under good growth conditions. Three weeks after sowing, the test plants are treated in the three-leaf stage. The compounds of the formula (I) or salts thereof according to the invention which have been formulated as wettable powders or as emulsion concentrates are sprayed in various dosages onto the green parts of the plants at an application rate of 600 to 800 l of water/ha (converted). After the test plants have remained in the greenhouse for about 3 to 4 weeks under ideal growth conditions, the effect of the preparations is scored visually by comparison with untreated controls. The agents according to the invention also have a good herbicidal post-emergence activity against a broad range of economically important grass weeds and broad-leaved weeds.

As for `CCN(C=Nc1ccccc1S(=O)(=O)NC(=O)Nc1nc(OC)cc(OC)n1)CC` [Example 1-5], the “herbicidal activity, pre-emergence” value in series [1] is listed as “very good herbicidal activity”. Moreover, the “herbicidal activity, post-emergence” value in series [2] is “very good herbicidal activity”.

Consider `CCN(C=Nc1ccc(C(=O)OC)c(S(=O)(=O)NC(=O)Nc2nc(OC)cc(OC)n2)c1)CC` [Example 2-48], for which, in series [1], the “herbicidal activity, pre-emergence” value is recorded as “very good herbicidal activity”. Moreover, the “herbicidal activity, post-emergence” value in series [2] is on record as “very good herbicidal activity”.

As to `CCN(C=Nc1ccc(S(=O)(=O)CC)c(S(=O)(=O)NC(=O)Nc2nc(OC)cc(OC)n2)c1)CC` [Example 2-50], the “herbicidal activity, pre-emergence” value in series [1] is listed as “very good herbicidal activity”. Moreover, the “herbicidal activity, post-emergence” value in series [2] is recorded as “very good herbicidal activity”.

On to `COc1cc(OC)nc(NC(=O)[N-]S(=O)(=O)c2sccc2N=CN(C)C)n1.[Na+]` [Example 9-6], for which the “herbicidal activity, pre-emergence” value in series [1] is listed as “very good herbicidal activity”. For the same compound, the “herbicidal activity, post-emergence” value in series [2] is listed as “very good herbicidal activity”.

As to `COc1cc(OC)nc(NC(=O)[N-]S(=O)(=O)c2sccc2N=C(C)N(C)C)n1.[Na+]` [Example 9-2], the “herbicidal activity, pre-emergence” value in series [1] was “very good herbicidal activity”. The “herbicidal activity, post-emergence” value in series [2] was “very good herbicidal activity”.

With `COc1cc(OC)nc(NC(=O)NS(=O)(=O)c2ncccc2N=C(C(C)C)N(C)C)n1` [Example 4-17], the “herbicidal activity, pre-emergence” value in series [1] was “very good herbicidal activity”. Also, the “herbicidal activity, post-emergence” value in series [2] is recorded as “very good herbicidal activity”.

With `COC(=O)c1ccc(N=CN2CCCC2)cc1S(=O)(=O)NC(=O)Nc1nc(OC)cc(OC)n1` [Example 2-36], the “herbicidal activity, pre-emergence” value in series [1] was “very good herbicidal activity”. The “herbicidal activity, post-emergence” value in series [2] is on record as “very good herbicidal activity”.

Take `CCC(=Nc1ccc(C(=O)OC)c(S(=O)(=O)NC(=O)Nc2nc(OC)cc(OC)n2)c1)N(C)C` [Example 2-24]: the “herbicidal activity, pre-emergence” value in series [1] is listed as “very good herbicidal activity”. Moreover, the “herbicidal activity, post-emergence” value in series [2] was “very good herbicidal activity”.

In the case of `COc1cc(OC)nc(NC(=O)NS(=O)(=O)c2sccc2N=C(C(C)C)N(C)C)n1` [Example 9-3], the “herbicidal activity, pre-emergence” value in series [1] was “very good herbicidal activity”. The “herbicidal activity, post-emergence” value in series [2] is given as “very good herbicidal activity”.

Regarding `COc1cc(OC)nc(NC(=O)NS(=O)(=O)c2sccc2N=C(C)N(C)C)n1` [Example 9-1], in series [1], the “herbicidal activity, pre-emergence” value is on record as “very good herbicidal activity”. Moreover, the “herbicidal activity, post-emergence” value in series [2] is “very good herbicidal activity”.

Turning to `CCN(C=Nc1ccc(C(=O)OC)c(S(=O)(=O)[N-]C(=O)Nc2nc(OC)cc(OC)n2)c1)CC.[Na+]` [Example 2-49], the “herbicidal activity, pre-emergence” value in series [1] is “very good herbicidal activity”. The “herbicidal activity, post-emergence” value in series [2] is “very good herbicidal activity”.

As for `COc1cc(OC)nc(NC(=O)[N-]S(=O)(=O)c2c(N=CN(C)C)c(C)nn2C)n1.[Na+]` [Example 10-2], in series [1], the “herbicidal activity, pre-emergence” value is “very good herbicidal activity”. The “herbicidal activity, post-emergence” value in series [2] is “very good herbicidal activity”.

As to `COC(=O)c1ccc(N=C(C(C)C)N(C)C)cc1S(=O)(=O)NC(=O)Nc1nc(OC)cc(OC)n1` [Example 2-26], the “herbicidal activity, pre-emergence” value in series [1] was “very good herbicidal activity”. In series [2], the “herbicidal activity, post-emergence” value is given as “very good herbicidal activity”.

As a reminder, the melting point is the temperature of the solid-liquid transition. As for `COc1cc(OC)nc(NC(=O)NS(=O)(=O)c2ccccc2N=CN(C)C)n1` [Example 1-1, N-[(4,6-dimethoxypyrimidin-2-yl)aminocarbonyl]-2-(2-dimethylamino-1-azaethenyl)benzenesulfonamide], the melting point was 209 to 210 °C (dec.). In addition, the “herbicidal activity, pre-emergence” value in series [1] is on record as “very good herbicidal activity”. Further, in series [2], the “herbicidal activity, post-emergence” value is given as “very good herbicidal activity”.

On to `COC(=O)c1ccc(N=CN(C)C)cc1S(=O)(=O)NC(=O)Nc1nc(C)nc(OC)n1` [Example 2-41], for which the “herbicidal activity, pre-emergence” value in series [1] is reported as “very good herbicidal activity”. Further, the “herbicidal activity, post-emergence” value in series [2] is recorded as “very good herbicidal activity”.

With `COc1cc(OC)nc(NC(=O)NS(=O)(=O)c2ncccc2N=C(C)N(C)C)n1` [Example 4-18], in series [1], the “herbicidal activity, pre-emergence” value is recorded as “very good herbicidal activity”. The “herbicidal activity, post-emergence” value in series [2] is listed as “very good herbicidal activity”.

With `COc1cc(OC)nc(NC(=O)NS(=O)(=O)c2c(N=CN(C)C)c(C)nn2C)n1` [Example 10-1], in series [1], the “herbicidal activity, pre-emergence” value is reported as “very good herbicidal activity”. The “herbicidal activity, post-emergence” value in series [2] is listed as “very good herbicidal activity”.

Take `COc1cc(OC)nc(NC(=O)[N-]S(=O)(=O)c2ccccc2N=CN(C)C)n1.[Na+]` [Example 1-14]: the “herbicidal activity, pre-emergence” value in series [1] is “very good herbicidal activity”. Moreover, the “herbicidal activity, post-emergence” value in series [2] is given as “very good herbicidal activity”.

As for `CCC(=Nc1cccnc1S(=O)(=O)NC(=O)Nc1nc(OC)cc(OC)n1)N(C)C` [Example 4-19], in series [1], the “herbicidal activity, pre-emergence” value is “very good herbicidal activity”. Moreover, the “herbicidal activity, post-emergence” value in series [2] was “very good herbicidal activity”.

Regarding `COc1cc(OC)nc(NC(=O)NS(=O)(=O)c2sccc2N=CN(C)C)n1` [Example 9-5], the “herbicidal activity, pre-emergence” value in series [1] was “very good herbicidal activity”. Further, the “herbicidal activity, post-emergence” value in series [2] is listed as “very good herbicidal activity”.

Consider `COC(=O)c1ccc(N=CN(C)C)cc1S(=O)(=O)NC(=O)Nc1nc(Cl)cc(OC)n1` [Example 2-39], for which, in series [1], the “herbicidal activity, pre-emergence” value is “very good herbicidal activity”. Besides, in series [2], the “herbicidal activity, post-emergence” value is “very good herbicidal activity”.

Regarding `COc1cc(OC)nc(NC(=O)NS(=O)(=O)c2cc(N=CN(C)C)ccc2S(C)(=O)=O)n1` [Example 2-21], the “herbicidal activity, pre-emergence” value in series [1] was “very good herbicidal activity”. Besides, the “herbicidal activity, post-emergence” value in series [2] is recorded as “very good herbicidal activity”.

Regarding `COC(=O)c1ccc(N=CN2CCCCC2)cc1S(=O)(=O)NC(=O)Nc1nc(OC)cc(OC)n1` [Example 2-37], the “herbicidal activity, pre-emergence” value in series [1] was “very good herbicidal activity”. Also, in series [2], the “herbicidal activity, post-emergence” value is “very good herbicidal activity”.

For `COc1cc(OC)nc(NC(=O)[N-]S(=O)(=O)c2sccc2N=C(C(C)C)N(C)C)n1.[Na+]` [Example 9-4], the “herbicidal activity, pre-emergence” value in series [1] is “very good herbicidal activity”. In addition, in series [2], the “herbicidal activity, post-emergence” value was “very good herbicidal activity”.

As to `COc1cc(OC)nc(NC(=O)NS(=O)(=O)c2cccc(N=CN(C)C)c2)n1` [Example 2-47], the “herbicidal activity, pre-emergence” value in series [1] is on record as “very good herbicidal activity”. Besides, the “herbicidal activity, post-emergence” value in series [2] is “very good herbicidal activity”.

Compound `COC(=O)c1ccc(N=CN(C)C)cc1S(=O)(=O)NC(=O)Nc1nc(OC)cc(OC)n1` [Example 2-10, methyl 2-[[[[(4,6-dimethoxypyrimidin-2-yl)amino]carbonyl]amino]sulfonyl]-4-(2-dimethylamino-1-azaethenyl)-benzoate] registered a melting point of 73 to 75 °C. For the same compound, in series [1], the “herbicidal activity, pre-emergence” value was “very good herbicidal activity”. Moreover, in series [2], the “herbicidal activity, post-emergence” value is “very good herbicidal activity”.

On to `COc1cc(OC)nc(NC(=O)NS(=O)(=O)c2ncccc2N=CN(C)C)n1` [Example 4-2], for which the “herbicidal activity, post-emergence” value in series [2] is given as “very good herbicidal activity”.

For the compound `COc1cc(OC)nc(NC(=O)NS(=O)(=O)c2cc(N=CN(C)C)ccc2C(=O)N(C)C)n1` [Example 2-15, N,N-dimethyl-2-[[[[(4,6-dimethoxypyrimidin-2-yl)-amino]carbonyl]amino]sulfonyl]-4-(2-dimethylamino-1-azaethenyl)-benzamide], the melting point was 140 to 141 °C (dec.). In addition, the “herbicidal activity, pre-emergence” value in series [1] is reported as “very good herbicidal activity”. The “herbicidal activity, post-emergence” value in series [2] is “very good herbicidal activity”.

Turning to `CCS(=O)(=O)c1ccc(N=CN(C)C)cc1S(=O)(=O)NC(=O)Nc1nc(OC)cc(OC)n1` [Example 2-22], the “herbicidal activity, pre-emergence” value in series [1] is “very good herbicidal activity”. Besides, the “herbicidal activity, post-emergence” value in series [2] is “very good herbicidal activity”.
